Assays:
ASIC1a = assay: Response of ASIC1a to nociceptin and orphanin; type: cell-based, rat; conditions: applied under the same conditions as nocistatin, pH 7.4, pH drop to 5.5; n = 4
Procedure: Oocytes expressed rASIC1a, rASIC1b, rASIC2a, and rASIC3 homomeric channels were prepared as described. Injected oocytes were kept for two–three days at 19 °C and then for up to seven days at 15 °C in ND-96 medium supplemented with gentamycin (50 μg·mL^−1) and containing (in mM): 96 NaCl, 2 KCl, 1.8 CaCl2, 1 MgCl2, and 10 HEPES titrated to pH 7.4 with NaOH. Electrophysiological recordings were performed using the GeneClamp500 amplifier (Axon Instruments, Inverurie, UK) at a holding potential of -50 mV. The data were filtered at 20 Hz and digitized at 100 Hz using the L780 AD converter (L-Card, Moscow, Russia). Microelectrodes were filled with 3 M KCl. The external bath solution was ND-96 with pH adjusted to 7.4/7.8 (10 mM HEPES) /8.5 (10 mM Tris). Nocistatin containing solutions were freshly prepared and buffered each experimental day in ND-96 bath solution (pH 7.4/7.8/8.5). Proton-activated currents through ASIC channels were elicited by application of ND-96, in which 10 mM of HEPES was substituted with 10 mM MES at pH 5.5/ 10 mM acetic acid at pH 4.5. The whole-cell recording was performed if a response to the control pH stimulus was stable in at least two replicates. […]
Figure S1. […] Currents were measured at a holding external bath pH 7.4 and were induced by a pH drop to 5.5. […]

ASIC channels [1] = conditions: Supplementary Figure S1 and ref [23]; cited from earlier work
From the text: The nocistatin in mammalian is expressed as a precursor protein coding three neuropeptides (nocistatin, nociceptin, and Orphanin FQ2). […] Nocistatin is well represented in different parts of the brain and spinal cord. […] Nocistatin was studied in animal models as a prospective molecule together with opi ...

rat ASIC3 channels = test system: rat ASIC3 channels; set-up: method as in 2 sources, ref [20] = [20]; PMID 29277899; doi:10.1111/bph.14134; 20. Osmakov D.I. Koshelev S.G. Andreev Y.A. Dubinnyi M.A. Kublitski V.S. Efremov R.G. Sobolevsky A.I. Kozlov S.A. Proton-independent activation of acid-sensing ion channel 3 by an alkaloid, lindoldham ||| ref [22] = [22]; PMID 28955199; doi:10.3389/fnmol.2017.00282; 22. Osmakov D.I. Koshelev S.G. Andreev Y.A. Kozlov S.A. Endogenous Isoquinoline Alkaloids Agonists of Acid-Sensing Ion Channel Type 3 Front. Mol. Neurosci. 2017 10 282 10.3389/fnmol.2017.00282 2895519; conditions: cited from earlier work; for Effect on rat ASIC3: physiological pH, prevents steady-state desensitization, ref [22]
human ASIC3 channels = test system: human ASIC3 channels; set-up: method as in 2 sources, ref [20] = [20]; PMID 29277899; doi:10.1111/bph.14134; 20. Osmakov D.I. Koshelev S.G. Andreev Y.A. Dubinnyi M.A. Kublitski V.S. Efremov R.G. Sobolevsky A.I. Kozlov S.A. Proton-independent activation of acid-sensing ion channel 3 by an alkaloid, lindoldham ||| ref [22] = [22]; PMID 28955199; doi:10.3389/fnmol.2017.00282; 22. Osmakov D.I. Koshelev S.G. Andreev Y.A. Kozlov S.A. Endogenous Isoquinoline Alkaloids Agonists of Acid-Sensing Ion Channel Type 3 Front. Mol. Neurosci. 2017 10 282 10.3389/fnmol.2017.00282 2895519; conditions: cited from earlier work; for Effect on human ASIC3: physiological pH, prevents steady-state desensitization, ref [22]
ASIC channels [2] = conditions: ref [14],[18],[19]; cited from earlier work
From the text: All previously known activators of ASIC channels, both exogenous and endogenous, cause a persistent, slowly desensitized current that was different in kinetic parameters from currents induced by pH drops. […] Both agonists show rapid kinetics of desensitization of the currents and have a high Hill coefficient of activation. The identical efficiency with which the toxin Mamb-2 inhibits the nocistatin- and proton ...

[3] = test system: delayed rectifying K^+, voltage-gated Na^+, and L-type Ca^2+ currents; set-up: method as in PMID 29477572; conditions: ref [19]; cited from earlier work
ASIC3 = conditions: cited from earlier work; for Effect on ASIC3: lipids, ref [21]
From the text: Acid-sensing ion channels (ASICs) are members of ligand-gated cation channels and belong to the degenerin/epithelial Na^+ channel superfamily. Four genes (ACCN1–ACCN4) express six subunits (ASIC1a, ASIC1b, ASIC2a, ASIC2b, ASIC3, and ASIC4), four of which can form functional homomeric channels (ASIC1a, ASIC1b, ASIC2a, and ASIC3). ASIC channels are widely expressed throughout the neurons of central and peripheral nervous systems, where they play a role in neurotransmission, synaptic plasticity, and learning, and in ischemia, neuronal cell death.

[4] = broad range of pH, including pH > 7.4, ref [20]

## nociceptin: neuropeptide nociceptin (NC) [PNOC_RAT 135–151] (FGGFTGARKSARKLANQ; Nociceptin; UniProt Q62923 135-151, looked up, fragment)
ASIC1a
  Effect on ASIC1a: no effect (neither activating nor inhibitory)
ASIC channels [1]
  Activating effects on ASIC channels: do not have activating effects on ASIC channels

## COc1cc2c(cc1O)[C@H](Cc1ccc(Oc3cc(C[C@@H]4NCCc5cc(OC)c(O)cc54)ccc3O)cc1)NCC2 [lindoldhamine]
Rat ASIC3 channels; [4]
  Action on rat ASIC3: agonist and positive allosteric modulator
Human ASIC3 channels; [4]
  Action on human ASIC3: agonist and positive allosteric modulator

## COc1ccc(C[C@H]2c3cc(O)c(OC)cc3CCN2C)cc1O [reticuline]
Rat ASIC3 channels
  Effect on rat ASIC3: activating human and rat ASIC3 channels at physiological pH and preventing a steady-state desensitization of the channels
Human ASIC3 channels
  Effect on human ASIC3: activating human and rat ASIC3 channels at physiological pH and preventing a steady-state desensitization of the channels

## Cc1nc(NC(=N)N)nc2ccccc12 [GMQ, 2-guanidine-4-methylquinazoline]
ASIC channels [2]
  Shape of current caused by activator: slowly developing, non-desensitizing and non-selective cation current
[3]
  Modulation of K^+, Na^+ and Ca^2+ currents: modulating delayed rectifying K^+, voltage-gated Na^+, and L-type Ca^2+ currents
ASIC3; pH < 7.4, ref [18]
  Action on ASIC3: acting on ASIC3 at pH < 7.4 through a nonproton sensor

## CCCCC/C=C\C/C=C\C/C=C\C/C=C\CCCC(=O)O [arachidonic acid]
ASIC3
  Effect on ASIC3: evoking a constitutive depolarizing ASIC3-mediated current

## orphanin: neuropeptide orphanin (Orf) [PNOC_RAT 154–170] (FSEFMRQYLVLSMQSSQ; Orphanin FQ2; UniProt Q62923 154-170, looked up, fragment)
ASIC1a
  Effect on ASIC1a: no effect (neither activating nor inhibitory)
ASIC channels [1]
  Activating effects on ASIC channels: do not have activating effects on ASIC channels

## lysophosphatidylcholine [lysophosphatidylcholine (LPC)]
ASIC3
  Effect on ASIC3: evoking a constitutive depolarizing ASIC3-mediated current

## Oc1ccc(CC2NCCc3cc(O)c(O)cc32)cc1O (stereo not drawn) [tetrahydropapaveroline (THP), tetrahydropapaveroline]
Rat ASIC3 channels
  Effect on rat ASIC3: activating human and rat ASIC3 channels at physiological pH and preventing a steady-state desensitization of the channels
Human ASIC3 channels
  Effect on human ASIC3: activating human and rat ASIC3 channels at physiological pH and preventing a steady-state desensitization of the channels

From PMC6769468, “Endogenous Neuropeptide Nocistatin Is a Direct Agonist of Acid-Sensing Ion Channels (ASIC1, ASIC2 and ASIC3)” (Biomolecules, 2019)
